Measured values reported in patent EP0054589B1, “Organic phosphoric acid ester derivatives, a process for preparing the same and insecticidal, miticidal or nematocidal compositions containing the same” (priority 1980, dated 1982).

Columns and labels:
[1] = test system: diamond back moth; test: Insecticidal effect on diamond-back moth (cabbage leaf dip); type: in vivo, Plutella xylostella; settings: 100 ppm, after 72 hours, 25°C
Outline: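 Cabbage leaves dipped 10 s in water-diluted emulsifiable concentrate at set concentration, air-dried; thirty 3rd-instar diamond-back moth larvae per cup held at 25°C. Percent mortality scored after 72 h, three replicates per treatment.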

[2] = test system: smaller tea tortrix; test: Insecticidal effect on smaller tea tortrix (apple leaf dip); type: in vivo; settings: Adoxophyes orana, foliar; Table 9; 100 ppm; after 72 hours, 25°C; wettable powder as Formulation Example 5; read-out: Percent Mortality
Description: Leaves of an apple tree were dipped into a dilute water suspension of a wettable powder prepared as described in Formulation Example 5. After drying in air, the leaves were charged in a 60 ml volume cup made of vinyl chloride resin, and […] 3rd-instar larvae of smaller tea tortrix were put in each cup. The cups were capped and kept at 25°C. After 72 hours, the number of the surviving insects and the dead insects were recorded to determine percent mortality. In each treatment, 3 cups and 30 insects were used in total.

[3] = test system: carmine mites resistant to Kelthane; test: Miticidal effect on carmine mite resistant to Kelthane (sprayed egg plant seedling); type: in vivo, Tetranychus cinnabarius; settings: 500 ppm; for Number of Living Mites after Application 7th Day / Number of Living Mites after Application 14th Day / Number of Living Mites after Application 21st Day / Number of Living Mites after Application 28th Day: egg plant seedling; for Control Effect (%): from mite counts on 7th, 14th, 21st and 28th day
Description: (§1) (A) An emulsifiable concentrate prepared as described in Formulation Example 1 and diluted to a predetermined concentration was sprayed using a spray-gun on a seedling of an egg plant placed in a pot of 12 cm in diametre to which plant carmine mites resistant to Kelthane were parasitic. After drying in air, seedlings were kept in a green house, and the number of living insects was recorded on the 7th, 14th, 21 st and 28th day from the day of application to determine the control effects. Three pots were used for each treatment. The control effect was assessed by the formula described in TEST EXAMPLE 7 above. Further, phytotoxicity was observed visually on the 7th day after the application.
as §1, with “(B) An” for “(A) An”, “Example 3” for “Example 1”, “in diameter” for “in diametre”, “in Test” for “in TEST”

[4] = test system: Apple; test: Phytotoxicity on various crops; type: in vivo; set-up: key: Symbol — indicates that no toxicity was observed; settings: 500 ppm sprayed; checked visually after 10 days
Outline: (§2)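 Plants were sprayed with an aqueous dilution of an emulsifiable concentrate at 500 ppm of active ingredient, then kept under greenhouse conditions. Injury was assessed by eye ten days later.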

[5] = test system: Beet; test: Phytotoxicity on various crops; type: in vivo; set-up: key: Symbol — indicates that no toxicity was observed; settings: 500 ppm sprayed; checked visually after 10 days
Outline: as §2

[6] = test system: Cabbage; test: Phytotoxicity on various crops; type: in vivo; set-up: key: Symbol — indicates that no toxicity was observed; settings: 500 ppm sprayed; checked visually after 10 days
Outline: as §2

[7] = test system: Cotton; test: Phytotoxicity on various crops; type: in vivo; set-up: key: Symbol — indicates that no toxicity was observed; settings: 500 ppm sprayed; checked visually after 10 days
Outline: as §2

[8] = test system: Cucumber; test: Phytotoxicity on various crops; type: in vivo; set-up: key: Symbol — indicates that no toxicity was observed; settings: 500 ppm sprayed; checked visually after 10 days
Outline: as §2

[9] = test system: Green Pepper; test: Phytotoxicity on various crops; type: in vivo; set-up: key: Symbol — indicates that no toxicity was observed; settings: 500 ppm sprayed; checked visually after 10 days
Outline: as §2

[10] = test system: Kidney Bean; test: Phytotoxicity on various crops; type: in vivo; set-up: key: Symbol — indicates that no toxicity was observed; settings: 500 ppm sprayed; checked visually after 10 days
Outline: as §2

[11] = test system: Rice; test: Phytotoxicity on various crops; type: in vivo; set-up: key: Symbol — indicates that no toxicity was observed; settings: 500 ppm sprayed; checked visually after 10 days
Outline: as §2

[12] = test system: Tea; test: Phytotoxicity on various crops; type: in vivo; set-up: key: Symbol — indicates that no toxicity was observed; settings: 500 ppm sprayed; checked visually after 10 days
Outline: as §2

[13] = test system: Tomato; test: Phytotoxicity on various crops; type: in vivo; set-up: key: Symbol — indicates that no toxicity was observed; settings: 500 ppm sprayed; checked visually after 10 days
Outline: as §2

[14] = test system: egg plant; test: Phytotoxicity on various crops; type: in vivo; set-up: key: Symbol — indicates that no toxicity was observed; settings: 500 ppm sprayed; checked visually after 10 days
Outline: as §2

[15] = Table 7, emulsifiable concentrate as Formulation Example 1
[16] = Table 13, Formulation Example 1
[17] = Table 14, Formulation Example 3

| Compound | Percent Mortality (%) [1, 15] [%] | mortality at 100 ppm [2] [%] | Number of Living Mites after Application 7th Day [3, 16] | Number of Living Mites after Application 14th Day [3, 16] | Number of Living Mites after Application 21st Day [3, 16] | Number of Living Mites after Application 28th Day [3, 16] | Control Effect (%) ([3]; Table 13) | Phytotoxicity: Apple [4] | Phytotoxicity: Beet [5] | Phytotoxicity: Cabbage [6] | Phytotoxicity: Cotton [7] | Phytotoxicity: Cucumber [8] | Phytotoxicity: Green Pepper [9] | Phytotoxicity: Kidney Bean [10] | Phytotoxicity: Rice [11] | Phytotoxicity: Tea [12] | Phytotoxicity: Tomato [13] | Phytotoxicity: Egg Plant [14] | further results |
| --- | --- | --- | --- | --- | --- | --- | --- | --- | --- | --- | --- | --- | --- | --- | --- | --- | --- | --- | --- |
| CCCSP(=O)(OC)Oc1ccc2c(c1)OC(C)=CC2(C)C (stereo not drawn) [Compound No. 1] | 100 | 100 | 0 | 0 | 5 | 11 | 99.0 | — | — | — | — | — | — | — | — | — | — | — |  |
| CCCSP(=O)(OCC)Oc1ccc2c(c1)OC(C)=CC2(C)C (stereo not drawn) [Compound No. 2, O-ethyl-S-propyl-O-(2,4,4-trimethyl-1,4-benzopyran-7-yl)phosphorothioate] | 100 | 100 | 0 | 0 | 7 | 10 | 99.1 | — | — | — | — | — | — | — | — | — | — | — |  |
| CCCSP(=S)(OC)Oc1ccc2c(c1)OC(C)=CC2(C)C (stereo not drawn) [Compound No. 9, 0-methyl-S-propyl-(2,4,4-trimethyl-1,4-benzopyran-7-yl)phosphorodithioate] | 100 | 100 | 0 | 0 | 0 | 0 | 100 | — | — | — | — | — | — | — | — | — | — | — |  |
| CCCSP(=S)(OCC)Oc1ccc2c(c1)OC(C)=CC2(C)C (stereo not drawn) [Compound No. 10] | 100 | 96.7 | 0 | 0 | 4 | 16 | 99.0 | — | — | — | — | — | — | — | — | — | — | — | Number of Living Mites after Application 7th Day [3, 17]: 0; Number of Living Mites after Application 14th Day [3, 17]: 0; Number of Living Mites after Application 21st Day [3, 17]: 0; Number of Living Mites after Application 28th Day [3, 17]: 12; Control Effect (%) ([3]; Table 14): 98.7% |
| CCCSP(=O)(OCC)Oc1ccc2c(c1)OC(C)(C)C=C2C (stereo not drawn) [Compound No. 20, O-ethyl-S-propyl-0-(2,2,4-trimethyl-1,2-benzopyran-7-yl)phosphorothioate] | 100 |  |  |  |  |  |  | — | — | — | — | — | — | — | — | — | — | — | Percent Mortality (%) ([1]; Table 8, emulsifiable concentrate as Formulation Example 4): 100% |
